Results taken from patent US6500405B1, “Use of certain amides as probes for detection of antitubulin activity and resistance monitoring” (Dow AgroSciences LLC, priority 1996, dated 2002).

Tests used:
[1] = tested on: tubulin in tobacco suspension-cultured cells; test: Whole cell binding assay, tritiated compound 1 as probe, tobacco suspension-cultured cells; conditions: for Binding of radioligand (% control): 2 hours preincubation, 20 minutes with tritiated compound 1; for Effect on binding of the radioligand (in words): tobacco cells, tritiated compound 1
Experimental: The effects of various antitubulin compounds from different chemical classes on binding of compound 1 to tubulin in tobacco suspension-cultured cells is shown in this example.
Aliquots (2 ml) of suspension-cultured tobacco cells grown as described in Example 2 were added to 25 ml capacity glass vials. Each vial then received 5 μl of DMSO (control) or 5 μl of an antitubulin compound dissolved in DMSO. Vials were incubated with shaking at 27° C. for 2 hours, then 5 μl of a 100 μM solution of tritium-labeled compound 1 in DMSO was added. Vials were incubated with shaking at 27° C. for 20 minutes, then binding of the radioligand was stopped by adding 5 μl of unlabeled 40 mM compound 1. The samples were incubated with shaking at 27° C. for a further 20 minutes, then transferred to 15 ml capacity polypropylene centrifuge tubes in an ice bath. Each vial was rinsed with 2 ml ice-cold growth medium (described in example 2) and the rinse solution was then added to the rest of the sample. Following centrifugation at 4° C. for 3 minutes at 2,500 rpm the supernatant was discarded and the pelleted cells were resuspended in 4 ml of ice-cold 10% trichloroacetic acid. Samples were kept for 1 hour in an ice bath, centrifuged again, and the cells resuspended in 4 ml of ice-cold ethanol. After incubation for a further 1 hour in an ice-bath the cells were collected by filtration on glass fiber filters and washed twice with 10 ml of ice-cold ethanol. The filters with washed cells were transferred to scintillation vials, 10 ml of Hydrofluor™ scintillation fluid (National Diagnostics, Manville, N.J.) was added to each, and the samples were counted in a scintillation counter to determine the amount of bound radioactivity. The effects of different antitubulin compounds on binding of the radioligand are presented in Table 7 with the amounts of radioligand bound in the presence of each antitubulin compound expressed as a percentage of the amount of radioligand bound in the DMSO control.

[2] = tested on: tubulin in Phytophthora capsici mycelium; test: Whole cell binding assay, tritiated compound 1 as probe, Phytophthora capsici mycelium; conditions: 1 hour preincubation, 20 min with tritiated compound 1
Experimental: The effect of paclitaxel on binding of compound 1 to tubulin in Phytophthora capsici is shown in this example.
A liquid mycelial shake culture of P. capsici in asparagine-sucrose medium was used to prepare a homogeneous suspension of fungal material for binding assays. Asparagine-sucrose medium (100 ml) was inoculated with mycelial plugs cut from cultures grown on V-8 agar, and incubated at 26° C. on a gyrotary shaker for 48 hours. The culture was homogenized in a blender, and 30 ml of the homogenate subcultured into 100 ml of fresh medium, which was then incubated at 26° C. on a gyrotary shaker for 17 hours. The resulting mycelium was recovered from the medium by centrifugation and resuspended in 1170 ml of fresh medium. Aliquots (2 ml) of this suspension were added to 25 ml capacity glass vials. Each vial then received 5 μl of DMSO (control) or 5 μl of paclitaxel dissolved in DMSO. Vials were incubated with shaking at 26° C. for 1 hour, then 5 μl of a 100 μM solution of tritium-labeled compound 1 in DMSO was added. Vials were incubated with shaking at 26° C. for 20 min, then binding of the radioligand was stopped by adding 5 μl of unlabeled 40 mM compound 1. The samples were incubated with shaking at 27° C. for a further 20 minutes, then transferred to 15 ml capacity centrifuge tubes in an ice bath. Each vial was rinsed with 2 ml ice-cold medium which was then added to the rest of the sample. Following centrifugation at 4° C. for 5 minutes at 3,400 rpm, the supernatant was discarded and the pelleted cells were resuspended in 4 ml of ice-cold 10% trichloroacetic acid. Samples were kept for 1 hour in an ice bath, centrifuged again, and the cells resuspended in 4 ml of ice-cold ethanol. After incubation for a further 2 hours in an ice-bath the cells were collected by filtration on glass fiber filters and washed twice with 10 ml of ice-cold ethanol. The filters with washed cells were transferred to scintillation vials, 10 ml of Hydrofluor™ scintillation fluid was added, and the samples were counted in a scintillation counter to determine the amount of bound radioactivity. The effect of paclitaxel at various concentrations on binding of the radioligand are presented in Table 8, with the amounts of radioligand bound in the presence of paclitaxel expressed as a percentage of the amount of radioligand bound in the DMSO control.

[3] = tested on: tubulin in colon cancer cell line HCT-116; test: Whole cell binding assay, tritiated S-enantiomer of compound 2 as probe, colon cancer cell line HCT-116; conditions: for Binding of radioligand (% control): HCT-116, 1 hour preincubation, 1 hour with radioligand
Experimental: Effect of antitubulin compounds on binding of the tritiated S-enantiomer of compound 2 to tubulin in a whole cell binding assay using the colon cancer cell line HCT-116 is shown by this example.
The colon cancer cell line HCT-116 (obtained from the American Type Culture Collection) was cultured in 75 cm^2 flasks containing McCoy's 5a Modified Medium with 10% heat-inactivated fetal bovine serum, 50 U/ml of penicillin G and 50 U/ml of streptomycin sulfate. A cell suspension was prepared by trypsinization of the culture, and adjusted to a density of 10^6 cells/ml by dilution into incomplete medium (medium lacking serum, penicillin G and streptomycin). Aliquots (150 μl) of cell suspension were added to wells of 96-well glass fiber filter plates (Millipore Multiscreen® plates, 1 μm glass fiber, Type B). Wells then received 30 μl of a solution of the test antitubulin compound in incomplete medium/DMSO mixture (8.5:1, v/v) or 30 μl of the incomplete medium/DMSO mixture alone (control). After mixing, the plates were incubated at 37° C. for 1 hour, then 25 μl of 0.8 μM tritium-labeled S-enantiomer of compound 2 was added to each well. After mixing, the plates were incubated at 37° C. for 1 hour, then binding of the radioligand to tubulin was stopped by adding 50 μl of 100 μM unlabeled compound 2. The fluid was removed from the plate by vacuum filtration through the glass fiber, then 100 μl of ice-cold 10% trichloroacetic acid was added to each well. The plates were incubated for 1 h at 4° C., then the fluid was removed by filtration. Ice-cold ethanol (250 μl) was added to each well, the plates incubated for 1 h at 4° C., then the ethanol was removed by filtration. Wells were washed 4 more times with 250 μl of ice-cold ethanol. After drying the plates at 37° C. for 20 min, the glass fiber filters were punched out of the wells into scintillation vials, 5 ml of scintillation fluid was added to each vial, and the samples were counted in a scintillation counter to determine the amount of bound radioactivity. The effects of different antitubulin compounds on binding of the radioligand are presented in Table 11 with the amounts of radioligand bound in the presence of each antitubulin compound expressed as a percentage of the amount of radioligand bound in the control.

[4] = biological target: tubulin in Phytophthora capsici (Phytophthora capsici, UniProt A4ZYP2); test: Binding assay, tritiated compound 1 as probe, germinated zoospore cysts of Phytophthora capsici; conditions: 1 hour preincubation; for IC50: 20 minutes with tritiated compound 1, read-out: IC50 (concentration required to inhibit binding of the radioligand by 50%) (converted)
Experimental: The effect of zarilamide and compounds 7, 8, 16, 19, 23 and 27 described in Table 1 on binding of compound 1 to tubulin in Phytophthora capsici is shown in this example.
Zoospores of P. capsici were prepared as follows. Petri plates, 9 cm in diameter, containing 15 ml of V-8 agar were inoculated with a mycelial plug of P. capsici and incubated for 4 days in the dark at 25° C., then placed under continuous fluorescent light for 3 days to induce sporulation. To induce zoospore release, 15 ml of sterile water was added to each plate. The plates were incubated at room temperature for 10 minutes, followed by 20 minutes at 4° C., and finally returned to room temperature for 15 minutes. The zoospore-containing fluid was then removed from each plate and adjusted to a density of 5×10^5 zoospores per ml. Assay tubes containing germinated zoospores cysts were prepared by adding 100 μl of zoospore suspension to 400 μl of asparagine-sucrose medium in 16×1.25 cm polypropylene tubes, which were then loosely capped and incubated on a gyrotary shaker at 120 rpm for 24 hours at 26° C.
Tubes containing germinated zoospore cysts then received 2.5 μl of DMSO (control) or 2.5 μl of test compound dissolved in DMSO. Each compound was tested at a series of concentrations. Tubes were incubated with shaking at 26° C. for 1 hour, then 2.5 μl of a 40 μM solution of tritium-labeled compound 1 in DMSO were added. Vials were incubated with shaking at 26° C. for 20 minutes, then binding of the radioligand was stopped by adding 1.5 ml of ice-cold unlabeled 133 μM compound 1, and transferring the tubes to an ice bath. Following centrifugation at 3,400 rpm for 3 minutes, the supernatant was discarded and the pelleted cells were resuspended in 2 ml of ice-cold 10% trichloroacetic acid. Samples were kept for 1 hour in an ice bath, centrifuged again, and the cells resuspended in 2 ml of ice-cold ethanol. After incubation for a further 1 hour in an ice-bath, an additional 4 ml of ice-cold ethanol was added to each tube and the cells were collected by filtration on glass fiber filters in a Brandell cell harvester (Brandel Biomedical Research and Development Laboratories, Inc., Gaithersburg, Md.), and washed twice with 4 ml of ice-cold ethanol. The filters with washed cells were transferred to scintillation vials and 0.1 ml of water was added followed by 1 ml of Protosol™ (Dupont NEN Research Products). The vials were incubated at 60° C. for 30 minutes and cooled to room temperature. Ten ml of Econofluor™ scintillation fluid (Dupont NEN Research Products) was added, and the samples were counted in a scintillation counter to determine the amount of bound radioactivity. IC50 values for each test compound (defined as the concentration required to inhibit binding of the radioligand by 50% as compared to controls lacking the test compound) were determined from dose-response curves and are presented in Table 9.

tubulin in Phytophthora capsici, sequence (A4ZYP2 entry or part of it): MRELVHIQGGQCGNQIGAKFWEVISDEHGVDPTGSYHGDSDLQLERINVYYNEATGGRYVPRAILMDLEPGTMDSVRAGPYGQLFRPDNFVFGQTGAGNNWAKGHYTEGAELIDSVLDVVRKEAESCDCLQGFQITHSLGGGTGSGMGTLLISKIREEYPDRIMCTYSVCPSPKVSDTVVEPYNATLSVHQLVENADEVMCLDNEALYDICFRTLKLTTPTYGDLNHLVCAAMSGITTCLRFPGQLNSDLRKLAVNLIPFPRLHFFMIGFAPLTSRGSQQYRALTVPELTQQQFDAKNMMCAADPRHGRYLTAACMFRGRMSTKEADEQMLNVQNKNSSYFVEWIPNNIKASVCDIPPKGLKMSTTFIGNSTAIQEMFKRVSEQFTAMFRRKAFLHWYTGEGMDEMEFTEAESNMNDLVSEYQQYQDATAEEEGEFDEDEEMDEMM
tubulin in Phytophthora capsici, sequence (A4ZYP4 entry or part of it, further chain): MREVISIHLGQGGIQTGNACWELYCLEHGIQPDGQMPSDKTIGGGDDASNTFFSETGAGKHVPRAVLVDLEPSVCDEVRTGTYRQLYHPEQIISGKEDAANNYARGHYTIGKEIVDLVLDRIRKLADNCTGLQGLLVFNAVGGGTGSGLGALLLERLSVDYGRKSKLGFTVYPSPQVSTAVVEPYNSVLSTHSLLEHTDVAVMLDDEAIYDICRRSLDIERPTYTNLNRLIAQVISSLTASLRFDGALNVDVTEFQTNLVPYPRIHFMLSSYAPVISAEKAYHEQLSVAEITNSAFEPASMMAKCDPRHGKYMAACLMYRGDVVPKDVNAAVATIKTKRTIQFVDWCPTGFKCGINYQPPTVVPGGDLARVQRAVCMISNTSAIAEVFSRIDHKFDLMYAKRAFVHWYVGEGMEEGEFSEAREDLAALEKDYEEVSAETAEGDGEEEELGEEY

CC(C)OC(=O)Nc1cccc(Cl)c1 [Chlorpropham, chlorpropham]
Binding of radioligand (% control) ([1]; antitubulin compound 100 μM): 29.1 % control
Effect on binding of the radioligand (in words) [1]: reduced binding of the radioligand

CC(=O)O[C@H]1C(=O)[C@@]2(C)[C@H]([C@H](OC(=O)c3ccccc3)[C@]3(O)C[C@H](OC(=O)[C@H](O)[C@@H](NC(=O)c4ccccc4)c4ccccc4)C(C)=C1C3(C)C)[C@]1(OC(C)=O)CO[C@@H]1C[C@@H]2O [Paclitaxel, paclitaxel]
Binding of radioligand (% control) ([1]; antitubulin compound 25 μM): 50.3 % control
Effect on binding of the radioligand (in words) [1]: reduced binding of the radioligand
Binding of radioligand (% control) ([2]; 0.004 μM): 84.5 % control
Binding of radioligand (% control) ([2]; 0.02 μM): 54.6 % control
Binding of radioligand (% control) ([2]; 0.1 μM): 34.6 % control
Binding of radioligand (% control) ([2]; 0.5 μM): 23.6 % control
Binding of radioligand (% control) ([3]; 0.1 μM): 37 % control
Binding of radioligand (% control) ([3]; 1 μM): 19 % control
Binding of radioligand (% control) ([3]; 10 μM): 6 % control
Binding of radioligand (% control) ([3]; 100 μM): 4 % control
Effect on binding of the radioligand (in words) ([3]; HCT-116, tritiated S-enantiomer of compound 2): reduced binding of the radioligand

CCCN(CCC)c1c([N+](=O)[O-])cc(C(F)(F)F)cc1[N+](=O)[O-] [Trifluralin, trifluralin]
Binding of radioligand (% control) ([1]; antitubulin compound 100 μM): 129.0 % control
Effect on binding of the radioligand (in words) [1]: increased binding of the radioligand

C#CC(C)(C)NC(=O)c1cc(Cl)cc(Cl)c1 [Pronamide, pronamide]
Binding of radioligand (% control) ([1]; antitubulin compound 100 μM): 68.7 % control
Effect on binding of the radioligand (in words) [1]: reduced binding of the radioligand

CCOC(C#N)NC(=O)c1ccc(Cl)cc1 (stereo not drawn) [Zarilamide, zarilamide]
IC50 (concentration required to inhibit binding of the radioligand by 50%) ([4]; 20 minutes with tritiated compound 1): 7.02 µg/mL

CCC(C)(NC(=O)c1cccc(C=NOC)c1)C(=O)CCl (stereo not drawn) [Compound 16]
IC50 [4]: 3760 nM

CC(C)(NC(=O)c1cc(Cl)cc(Cl)c1)C(=O)CCl [Compound 19]
IC50 [4]: 810 nM

CCC(C)(NC(=O)c1cc(Cl)c(Cl)c(Cl)c1)C(=O)CCl (stereo not drawn) [Compound 23]
IC50 [4]: 168 nM

CCC(C)(NC(=O)c1cc(Cl)cc(C=NOC)c1)C(=O)CCl (stereo not drawn) [Compound 7]
IC50 [4]: 2840 nM

CC(C)C(C)(NC(=O)c1cc(Cl)cc(Cl)c1)C(=O)CCl (stereo not drawn) [Compound 27]
IC50 [4]: 5440 nM

CCC(C)(NC(=O)c1cc(C)cc(Br)c1)C(=O)CCl (stereo not drawn) [Compound 8]
IC50 [4]: 721 nM
